In patent US20230140691A1, “OPTICALLY CLEAR, IN-SITU FORMING BIODEGRADABLE NANO-CARRIERS FOR OCULAR THERAPY, AND METHODS USING SAME” (Rowan University, priority 2017, published 2023):

Test: In vitro drug release from PLGA-PEG-PLGA hydrogel in microfluidic devices at physiological flow rate
Format: physicochemical
Details: 15 μg HA loaded; for release rate of hyaluronic acid from hydrogel: 35° C.; for amount of HA released: in 10 days
Description: The final volume of the hydrogel solution with the compound of interest was constrained to 100 μL because of the anatomical space in the lens capsule. Physiological flow rate (2.4 μl/min) was achieved using microfluidic devices. The devices resemble the anatomical dimensions of both the anterior and posterior chamber of the human eye, as well as the physiological dynamics of the aqueous humor flow. All of the release studies were conducted at 35° C. • a. Dexamethasone (Hydrophobic): 100 μL of PLGA-PEG-PLGA hydrogel solution at 25 (w/v) % was mixed with 100 μg of dexamethasone. The collected samples were analyzed via HPLC. • b. […] The collected samples were analyzed via fluoresce spectroscopy at an excitation, filter, and emission wavelengths (nm) of 483, 515 524, respectively • c. Nucleic acid conjugates (Hydrophilic): 62 μL of nucleic acid conjugates in PBS solution (31 μg) were mixed with 38 μL of hydrogel solution at a concentration of 25 (w/v) %. Because the nucleic acid conjugates were already dissolved in PBS, the hydrogel solution was diluted down to 14 (w/v) %. The collected samples were analyzed via fluorescence spectroscopy at an excitation, filter, and emission wavelengths (nm) of 642, 665, and 670, respectively. • d. Hyaluronic acid (Hydrophilic): 30 μL of hyaluronic acid (HA, 800 KDa) stock solution at a concentration of 0.5 mg/mL in PBS (15 ug of HA) was mixed with 56 μL of hydrogel solution at a concentration of 25 (w/v) %. In addition, 14 μL of PBS were added to diluted the hydrogel solution down to 14 (w/v) %. Samples containing PLL were prepared by adding to the already mentioned composition 10 mg of PLL (10 (w/v) % PLL). The collected samples were analyzed via fluorescence spectroscopy at an excitation, filter, and emission wavelengths (nm) of 483, 495, 518, respectively.

[1] = systems modified with 10 (w/v) % PLL

Hyaluronic acid
release rate of hyaluronic acid from hydrogel (control systems, no PLL): 0.087 ± 0.044 µg/h | amount of HA released (control systems, no PLL): 13 µg | release rate of hyaluronic acid from hydrogel [1]: 0.055±0.026 | amount of HA released [1]: 11 µg
